Legend:
Assay type in all cases: cell-based
[1] = system: RAMOS (positive expression of Brutons tyrosine protein kinase); test: In vitro growth inhibition (GI50), RAMOS; settings: Homo sapiens, Cell lines of leukemia, read-out: GI 50 Ramos BTK
SK-BR-3 (HER2/ErbB2 amp) = test: In vitro growth inhibition (GI50), SK-BR-3; settings: Homo sapiens, SK-BR3, HER2/ErbB2 amp+
Text: (§1) Tumor cell line is an effective cell model for studying the inhibition of tumor cell growth or proliferation in vitro. In the present invention, a representative tumor cell line was selected to determine the cell growth inhibition activity of the present compound. All cell lines used were from ATCC, DSMZ, and the Cell Bank of the Chinese Academy of Sciences. Cell culture conditions and methods were in accordance with the requirements of each cell line. Cells were subcultured in vitro for no more than 3 passages each time, and as required, single-clone purification and identification of cell lines could be carried out.
(§2) The cell culture media used were RPMI1640 (Gibco), MEM (Gibco), McCOY'S5A (Gibco), and IMDM (Gibco). The complete medium was prepared by supplement with 5˜20% fetal calf serum (Gibco), 1% double-antibiotics (10000 units/mL penicillin and 10000 units/mL), 2 mM glutamine or 1 mM sodium pyruvate, respectively.
(§3) Human gastric cancer cell line NCI-N87 (HER2/ErbB2 amp, ATCC), human breast cancer cell line HCC1954 (HER2/ErbB2 amp, ATCC) and ZR-75-30 (HER2/ErbB2 amp, ATCC), human adenocarcinoma cell line AU565 (HER2/ErbB2 amp, ATCC), human lung squamous cell carcinoma cell line NCI-H2170 (HER2/ErbB2 amp, ATCC), human bronchioalveolar adenocarcinoma cell line NCI-H1781 (HER2/ErbB2 Ins G776V,C mutant type, ATCC) were cultured with a 1×RPMI1640 complete medium (10% FBS), respectively. Human lung adenocarcinoma cell line Calu-3 (HER2/ErbB2 amp, ATCC) was cultured with 1×MEM, 10% FBS, 1% double antibody, 1% NEAA (Gibco), 2 mM glutamine and 1 mM sodium pyruvate. The human breast cancer cell line SK-BR-3 (HER2/ErbB2 amp, ATCC) was cultured with a McCOY'S5A complete medium (10% FBS).
(§4) Adherent cells were digested with 0.25% pancreatin-EDTA (Gibco). The suspension cells were collected by centrifugation. The supernatant was discarded and the cell pellet was resuspended and counted. Different cell concentrations (5˜10×10^4 cells/mL) were prepared according to the growth cycle of each cell line and then seeded on a 96-well plate (Corning), 100 μL/well. The cells were incubated overnight at 37° C., 5% CO2. The compounds were added to the cells on the second day with 2 wells in parallel. The final concentration of organic solvent shall not exceed 1%. The cells were continually incubated for 3 to 5 days, and then subjected to MTT assay.
(§5) The compound of the present invention and the control compound were dissolved in DMSO (Sigma) respectively, with the purity of more than 98%. The compound was stored in a concentration of 10 mM at −20° C. and diluted to 2- or 10-fold series prior to use.
(§6) Dojindo CCK8 reagent kit was used as MTT assay. THERMO […] FC meter was used as microplate reader.
(§7) For adherent cells, culture medium was removed and immediately replaced with the fresh prepared medium which contains 10% CCK8 reagent (100 μL/well). For the suspension cells, CCK8 was directly added to 10% of the final concentration. The cells were continually incubated for 1˜4 h. When a dark yellow color could be observed in the solvent control wells, the absorbance value at OD450 nm was measured and the cell growth rate was calculated according to the following formula: Cell Growth Rate (%)=100*(T−T0)/(C−T0) T=optical density of drug treatment cell well—optical density of blank control well; T0=optical density of cell well before drug treatment—optical density of blank control well; C=optical density of cell well of solvent control group—optical density of blank control well. The concentration value of 50% inhibition of cell growth (GI50) was calculated according to the drug concentration and cell growth rate curve. The experiment was independently repeated 1˜3 times, and subject to biological statistical analysis. 4. Experimental Results
(§8) Tumor cell growth inhibition test was performed by selecting representative compounds (compounds 4, 11, 12, 16, 27, 68, 71, 77, 79, 89 and 116 of the present invention). […]

[2] = system: NCI-H1781 (HER2/ErbB2 Ins G776V,C mutant type); test: In vitro growth inhibition (GI50), NCI-H1781; settings: Homo sapiens
Text: as §1, §2, §3, §4, §5, §6, §7, §8

Structure (SMILES) | GI50 [1] [nM] | GI50 (SK-BR-3 (HER2/ErbB2 amp)) [nM] | GI50 [2] [nM]
CC(C)(C)c1cc(NC(=O)Nc2ccc(-n3cnc4cc(O)ccc43)cc2)no1 [Compound 4, 1-(5-tert-butyl-isoxazol-3-yl)-3-[4-(5-hydroxy-benzimidazol-1-yl)-phenyl]-urea] | 100 to 1000 | > 2500 | > 2500
CC(C)(C)c1cc(NC(=O)Nc2ccc(-n3cnc4cc(OCCO)ccc43)cc2)no1 [Compound 11, 1-(5-tert-butyl-isoxazol-3-yl)-3-{4-[5-(2-hydroxy-ethoxyl)-benzimidazol-1-yl]-phenyl]-urea] | > 1000 | > 2500 | > 2500
CC(C)(C)c1cc(NC(=O)Nc2ccc(-n3cnc4cc(OCCN5CCOCC5)ccc43)cc2)no1 [Compound 16, 1-(5-tert-butyl-isoxazol-3-yl)-3-{4-[5-(2-morpholin-4-yl-ethoxyl)-benzimidazol-1-yl]-phenyl}-urea] | > 1000 | > 2500 | > 2500
CC(C)(C)c1cc(NC(=O)Nc2ccc(-n3cnc4ccc(OCCN5CCOCC5)cc43)cc2)no1 [Compound 27, 1-(5-tert-butyl-isoxazol-3-yl)-3-{4-[6-(2morpholin-4-yl-ethoxyl)-benzimidazol-1-yl]-phenyl}-urea] | > 1000 | > 2500 | > 2500
CC(C)(C)c1cc(NC(=O)Nc2ccc(-n3cnc4ccccc43)cc2)[nH]n1 [Compound 68, 1-(4-benzimidazol-1-yl-phenyl)-3-(5-tert-butyl-2H-pyrazol-3-yl)-urea] | > 1000 | > 2500 | > 2500
COc1ccc2c(c1)ncn2-c1ccc(NC(=O)Nc2cc(C(C)(C)C)n[nH]2)cc1 [Compound 71, 1-(5-tert-butyl-2H-pyrazol-3-yl)-3-[4-(5-methoxyl-benzimidazol-1-yl)-phenyl]-urea] | > 1000 | > 2500 | > 2500
COCCOc1ccc2c(c1)ncn2-c1ccc(NC(=O)Nc2cc(C(C)(C)C)n[nH]2)cc1 [Compound 77, 1-(5-tert-butyl-2H-pyrazol-3-yl)-3-{4-[5-(2-methoxyl-ethoxyl)-benzimidazol-1-yl]-phenyl}-urea] | > 1000 | > 2500 | > 2500
CC(C)(C)c1cc(NC(=O)Nc2ccc(-n3cnc4cc(OCCO)ccc43)cc2)[nH]n1 [Compound 79, 1-(5-tert-butyl-2H-pyrazol-3-yl)-3-{4-[5-(2-hydroxy-ethoxyl)-benzimidazol-1-yl]-phenyl]urea] | > 1000 | > 2500 | > 2500
CC(C)(C)c1cc(NC(=O)Nc2ccc(-n3cnc4cc(OCCN5CCOCC5)ccc43)cc2)[nH]n1 [Compound 89, 1-(5-tert-butyl-2H-pyrazol-3-yl)-3-{4-[5-(2-morpholin-4-yl-ethoxyl)-benzimidazol-1-yl]-phenyl}-urea] | > 1000 | > 2500 | > 2500
CC(C)(C)c1cc(N)n(C(=O)Nc2ccc(-n3cnc4ccccc43)cc2)n1 [Compound 116, 5-amino-3-tert-butyl-pyrazol-1-carboxylic acid (4-benzimidazol-1-yl-phenyl)-amide] | > 1000 | > 2500 | > 2500

From US10647680B2, “Urea compound, preparation method therefor and medical use thereof” (Ancureall Pharmaceutical (Shanghai) Co., Ltd., priority 2016, dated 2020)
